Measurements as given in PubChem BioAssay AID1850 (Southern Research Specialized Biocontainment Screening …, 2009).
pIC50: −log10 of the molar value.

What follows are compounds tested on Salmonella Typhi PhoP-promoter GFP reporter, fluorescence, 4 h (assay: PhoP regulon inhibitors, Salmonella typhi PhoP promoter GFP reporter, confirmatory (AID 1850)).
`Clc1ccc(Nc2ccc(NCc3ccccc3)nn2)cc1` showed a pIC50 of 3.99.
`CC(C)(C)c1ccc(OCCCNC2CCCC2)cc1` was tested, and the pIC50 was 4.08.
In the case of `Cc1cc(=O)[nH]c(-n2nc(C)cc2C)n1`, the pIC50 was 4.12.
With `CCn1cc(C(=O)O)c(=O)c2cc(F)c(N3CCN(C(=S)NC(=O)c4ccccc4C)CC3)cc21` the pIC50 was 4.83.
In the case of `COc1ccc(OCc2n(CC(=O)OC3CC(C)CCC3C(C)C)c3ccccc3[n+]2C)cc1` (configuration not stated), the pIC50 was 4.31.
In the case of `O=[N+]([O-])c1ccc(/C=[N+](\[O-])CCO)o1`, the pIC50 was 4.22.
Work on `CCCCCCCCCCCCCCCC[n+]1ccc(/C=N/O)cc1` yielded a pIC50 of 4.58.
`CCCCCC[N+](C)(C)CC/C=C1/c2ccccc2Sc2ccc(Cl)cc21` gave a pIC50 of 4.42.
Work on `CC1COc2c(N3CCN(C)CC3)c(F)cc3c(=O)c(C(=O)O)cn1c23` (configuration not stated) yielded a pIC50 of 6.51.
With `CNC(CC(=O)c1ccc([N+](=O)[O-])cc1)C(Cl)(Cl)Cl` (configuration not stated) the pIC50 was 4.02.
`CC(Nc1nc(N2CCCC2)nc2ccccc12)c1ccccc1` (configuration not stated) was tested, and the pIC50 was 4.16.
For `Brc1ccc2c(c1)C(OC1CN3CCC1CC3)c1ccccc1CS2` (configuration not stated), the pIC50 was 4.42.
With `CCCCCCCCCCCCCCCCn1cc[n+](C)c1` the pIC50 was 4.51.
For `COc1ccc(/C=N/Nc2cc(C)nc3ccc(Br)cc23)cc1`, the pIC50 was 4.72.
`O=C1CSC(=S)N1c1cccc(O)c1` gave a pIC50 of 3.90.
`CCC[C@H](CN[C@@H](CNC)[C@H](C)CC)NCCc1cc(C(F)(F)F)cc(C(F)(F)F)c1` was tested, and the pIC50 was 4.46.
Compound `COc1ccccc1CNCCc1ccc(F)cc1` has a pIC50 of 4.61.
In the case of `CCCCOc1ccc(NC2=NC3(CCCC3)N=C(N)N2)cc1`, the pIC50 was 4.68.
`O=C(Nc1cccc([N+](=O)[O-])c1)Nc1cccs1` gave a pIC50 of 4.61.
`Cc1ccc(NC(=O)COc2ccccc2CNC(C)(C)CC(C)(C)C)cc1` gave a pIC50 of 4.04.
Work on `Oc1c(CN2CCCCC2)cc(Br)c2cccnc12` yielded a pIC50 of 4.75.
`Cc1ccc(O)c(Nc2c3ccccc3nc3ccccc23)c1` gave a pIC50 of 4.56.
`CC1CCC(C(C)C)C(OC(=O)Cn2c(-c3ccc(Br)cc3)[n+](C)c3ccccc32)C1` (configuration not stated) gave a pIC50 of 4.31.
For `Clc1cccc(/C=N\Nc2nccs2)c1`, the pIC50 was 4.73.
`C=C1c2cccc(O)c2C(O)=C2C(=O)[C@]3(O)C(O)=C(C(N)=O)C(=O)[C@@H](N(C)C)[C@@H]3[C@@H](O)[C@H]12` gave a pIC50 of 6.25.
`C[n+]1c2n(c3ccccc31)N=C(c1ccc(-c3ccccc3)cc1)CS2` gave a pIC50 of 4.61.
For `OC(c1cc(C(F)(F)F)nc2c(C(F)(F)F)cccc12)C1CCCCN1` (configuration not stated), the pIC50 was 4.69.
`Cc1cccc(Nc2nc(NCc3ccco3)c3ccccc3n2)c1` was tested, and the pIC50 was 5.31.
Work on `Clc1cc(Br)ccc1OCCCNCc1ccccc1` yielded a pIC50 of 4.44.
Work on `N=c1c2c(n(Cc3cccc(Cl)c3)c3c1CCC3)CCCC2` yielded a pIC50 of 4.19.
`Cc1nc(N)c(Cc2ccc(Cl)cc2Cl)c(N)n1` gave a pIC50 of 4.35.
Work on `Cc1ccc(C(=O)NNC(=S)NC(=O)COc2ccccc2)cc1` yielded a pIC50 of 3.94.
For `CCCCCCOC(=O)C[N+](C)(C)CCOC1CC2CCC1(C)C2(C)C` (configuration not stated), the pIC50 was 4.44.
Work on `Nc1cc2c3c(cccc3c1)C(=O)N(CCN1CCCC1)C2=O` yielded a pIC50 of 4.08.
Compound `Cc1cc(OCC(O)CNC(C)c2ccccc2)ccc1C(C)C` (configuration not stated) has a pIC50 of 4.42.
`O=C(Nc1cccnc1)c1cc(Br)c(Br)s1` was tested, and the pIC50 was 4.72.
`c1ccc(CN2CCN(c3ncnc4c3[nH]c3ccccc34)CC2)cc1` showed a pIC50 of 4.42.
In the case of `OCCCNc1c2ccccc2nc2ccccc12`, the pIC50 was 3.98.
`Nc1cccc2c(=O)c3ccccc3[nH]c12` was tested, and the pIC50 was 4.67.
Work on `CN(C)CCCN(C(=O)c1ccc2c(c1)CCCC2)c1nc2ccc(Cl)cc2s1` yielded a pIC50 of 4.08.
With `CCc1ccc(NC(=O)Nc2ccncc2)cc1` the pIC50 was 4.15.
`O=C(N/N=C/c1ccccc1O)C1SCCCS1` was tested, and the pIC50 was 4.06.
In the case of `Cc1ccc(C)c(NC(=O)c2ccccc2O)c1`, the pIC50 was 4.12.
In the case of `COc1ccc(/C=N/Nc2cc(C)nc3ccccc23)cc1`, the pIC50 was 4.98.
Work on `O=S(=O)(Nc1c(S(=O)(=O)c2ccccc2)c2nc3ccccc3nc2n1C1CCCCC1)c1ccccc1` yielded a pIC50 of 5.30.
For `c1ccc2c(c1)CSc1sccc1C2=C1CCNCC1`, the pIC50 was 4.30.
`O=C(N/N=C/c1cc([N+](=O)[O-])ccc1O)c1cccc2cc[nH]c12` was tested, and the pIC50 was 4.44.
With `NC1=NC[C@H](CC2CCCCC2)N1CCc1cc(C(F)(F)F)cc(C(F)(F)F)c1` the pIC50 was 4.45.
For `Clc1ccc2c(c1)C(N1CCNCC1)Cc1ccccc1S2` (configuration not stated), the pIC50 was 4.45.
`O=C(O)c1cn(C2CC2)c2cc(N3CCN(S(=O)(=O)c4ccc5c(c4)OCCO5)CC3)c(F)cc2c1=O` gave a pIC50 of 5.12.
For `CC(=O)NC(c1ccc(Cl)cc1Cl)c1ccc2cccnc2c1O` (configuration not stated), the pIC50 was 4.02.
In the case of `c1ccc(CN2CCC(Nc3nc(-c4ccccc4)nc4ccccc34)CC2)cc1`, the pIC50 was 4.46.
`Cc1cc([N+](=O)[O-])cc(/C=N\NC(=O)C2COc3ccccc3O2)c1O` (configuration not stated) was tested, and the pIC50 was 4.29.
`CCn1cc(C(=O)O)c(=O)c2cc(F)c(N3CCN(C(=O)Nc4ccccc4)CC3)cc21` gave a pIC50 of 4.63.
In the case of `CNC[C@@H](CC1CCCCC1)NC[C@H](CC(C)C)NCCc1cccc(C(F)(F)F)c1`, the pIC50 was 4.70.
With `O=C(Cn1cc[n+](CC(=O)c2ccc(Cl)cc2Cl)c1)c1ccc(Cl)cc1Cl` the pIC50 was 4.43.
Work on `N=c1n(CCN2CCCCC2)c2ccccc2n1CC(=O)c1ccc(Cl)c(Cl)c1` yielded a pIC50 of 4.46.
